Converted amounts (≈) assume the structure as drawn. Structures can show the parent of a compound that is named as a salt. Where two headings read alike, the source gives them in different places.
Tests used:
[1] = system: A/Victoria/3/75 BVLV017 (H3N2); assay: Plaque reduction assay (PRA) in MDCK cells; type: cell-based; conditions: Influenza A virus, read-out: EC50 PRA A/Vic
[2] = system: B/Hong Kong/5/72 BVLV012; assay: Plaque reduction assay (PRA) in MDCK cells; type: cell-based, influenza virus; conditions: read-out: EC50 PRA B/HongK
[3] = system: A/New Caledonia/20/99 BVLV008 (H1N1); assay: Plaque reduction assay (PRA) in MDCK cells; type: cell-based; conditions: Influenza A virus, read-out: EC50 PRA A/New
[4] = system: A/Panama/2007/99 BVLV008 (H3N2); assay: Plaque reduction assay (PRA) in MDCK cells; type: cell-based; conditions: Influenza A virus, read-out: EC50 PRA A/Pan
[5] = system: B/Harbin/7/95 BVLV008; assay: Plaque reduction assay (PRA) in MDCK cells; type: cell-based, influenza virus; conditions: read-out: EC50 PRA B/Harb
[6] = system: A/Bayem/7/95 BVL006 (H1N1); assay: Plaque reduction assay (PRA) in MDCK cells; type: cell-based; conditions: Influenza A virus, read-out: EC50 PRA A/Bay
[7] = system: A/Sydney/5/97 BVLV015 (H3N2); assay: Plaque reduction assay (PRA) in MDCK cells; type: cell-based; conditions: Influenza A virus, read-out: EC50 PRA A/Syd
[8] = Rat lung retention after intra-tracheal dosing (long duration of action); conditions: in vivo
Method: Rodents are anaesthetised and dosed with compound of interest by the intra-tracheal route at a dose volume of 0.8 ml/kg. The rodent is then held in the vertical position until full recovery is achieved. […] Any analytical method suitable for detection of this type of compound may be used. The time at which levels of compound fall below the sensitivity of the analytical techniques identified will determine the residency time of the compound in lung tissue.
Please note that all experiments included a co-dosed internal standard, namely compound 3 of International Patent Publication No. WO 02/20514, to permit comparison. The data are expressed as a ratio with respect to this compound, the structure of which is shown below.
The data for compound A is included for comparison purposes.

[9] = system: A/WSN/33 BVLV09 (H1N1); assay: Plaque reduction assay (PRA) in MDCK cells; type: cell-based; conditions: Influenza A virus, read-out: EC50 PRA A/WSN
[10] = system: Influenza A/Sydney/5/97; assay: Cytopathic effect (CPE) assay in MDCK cells, MTT readout; type: cell-based, influenza virus; conditions: concentration inhibiting CPE by 50%, up to 72 hours
[11] = system: Influenza B/Harbin/7/95; assay: as above; type: cell-based, influenza virus; conditions: concentration inhibiting CPE by 50%, up to 72 hours
[12] = system: B/Yamanashi/166/98 BVLV007; assay: Plaque reduction assay (PRA) in MDCK cells; type: cell-based; conditions: influenza B virus, read-out: EC50 PRA B/Yam, reduces plaque numbers by 50%, MDCK cells
[13] = reduces plaque numbers by 50%, MDCK cells

SMILES	EC50 [1, 13]	EC50 [2]	EC50 [3, 13]	Ratio Mean (lung) (cmpd)/PCT AU01/01128 compound 3 ([8]; 0.1 mg/kg, 48 h)	Ratio Mean (lung) (cmpd)/PCT AU01/01128 compound 3 ([8]; 0.1 mg/kg, 168 h)	ID50 A/Sydney/5/97 [10]	ID50 B/Harbin/7/95 [11]	EC50 [12]	also measured
NC12CC3CC(CC(C3)C1)C2 [Amantadine]	220 ng/mL (≈ 1450 nM)	> 10000 ng/mL	11 ng/mL (≈ 72.7 nM)						EC50 [4, 13]: 157 ng/mL (≈ 1040 nM)
CC(=O)N[C@H]1[C@H]([C@H](O)[C@H](O)CO)OC(C(=O)O)=C[C@@H]1N=C(N)N [Compound A, 4-guanidino-2-deoxy-2,3-dehydro-N-acetylneuraminic acid, reference compound]		21 ng/mL (≈ 63.2 nM)		0.26	0.08				EC50 [5]: 0.19 ng/mL (≈ 0.572 nM); EC50 [1]: 5.5 ng/mL (≈ 16.6 nM); EC50 ([6]; H1N1, MDCK): 35 ng/mL (≈ 105 nM); EC50 [3]: 0.27 ng/mL (≈ 0.812 nM); EC50 [7]: 2.4 ng/mL (≈ 7.22 nM); EC50 [4]: 2.7 ng/mL (≈ 8.12 nM); EC50 [9]: 56 ng/mL (≈ 169 nM)
CC(=O)N[C@H]1[C@H]([C@H](OC(=O)NCCc2cccc(CCNC(=O)O[C@@H]([C@@H]3OC(C(=O)O)=C[C@H](NC(=N)N)[C@H]3NC(C)=O)[C@H](O)CO)c2)[C@H](O)CO)OC(C(=O)O)=C[C@@H]1NC(=N)N [Example 1, (2R,3R,4S)-3-(acetylamino)-2-{(1R,2R)-1-[({[2-(3-{2-[({[(1R,2R)-1-((2R,3R,4S)-3-(acetylamino)-4-{[amino(imino)methyl]amino}-6-carboxy-3,4-dihydro-2H-pyran-2-yl)-2,3-dihydroxypropyl]oxy}carbonyl)amino]ethyl}phenyl)ethyl]amino}carbonyl)oxy]-2,3-dihydroxypropyl}-4-{[amino(imino)methyl]amino}-3,4-dihydro-2H-pyran-6-carboxylic Acid]						84 ng/mL (≈ 95.4 nM)	0.2 ng/mL (≈ 0.227 nM)		
CC(=O)N[C@H]1[C@H]([C@H](OC(=O)NCCc2ccc(CCNC(=O)O[C@@H]([C@@H]3OC(C(=O)O)=C[C@H](NC(=N)N)[C@H]3NC(C)=O)[C@H](O)CO)cc2)[C@H](O)CO)OC(C(=O)O)=C[C@@H]1NC(=N)N [Example 2, (2R,3R,4S)-3-(acetylamino)-2-{(1R,2R)-1-[({[2-(4-{2-[({[(1R,2R)-1-((2R,3R,4S)-3-(acetylamino)-4-{[amino(imino)methyl]amino}-6-carboxy-3,4-dihydro-2H-pyran-2-yl)-2,3-dihydroxypropyl]oxy}carbonyl)amino]ethyl}phenyl)ethyl]amino}carbonyl)oxy]-2,3-dihydroxypropyl}-4-{[amino(imino)methyl]amino}-3,4-dihydro-2H-pyran-6-carboxylic Acid]				0.44	0.34				concentration at 48 h ([8]; 0.1 mg/kg, (cmpd) ng/g): 740 ng/g; concentration at 48 h ([8]; 0.1 mg/kg, Mean (cmpd) ng/g): 603 ng/g; concentration at 168 h ([8]; 0.1 mg/kg, Mean (cmpd) ng/g): 259 ng/g
CC(=O)N[C@H]1[C@H]([C@H](OC(=O)NCc2ccc(S(=O)(=O)c3ccc(CNC(=O)O[C@@H]([C@@H]4OC(C(=O)O)=C[C@H](NC(=N)N)[C@H]4NC(C)=O)[C@H](O)CO)cc3)cc2)[C@H](O)CO)OC(C(=O)O)=C[C@@H]1NC(=N)N [Example 4, (2R,3R,4S)-3-(acetylamino)-2-[(1R,2R)-1-({[({4-[(4-{[({[(1R,2R)-1((2R,3R,4S)-3-(acetylamino)-4-{[amino(imino)methyl]amino}-6-carboxy-3,4-dihydro-2H-pyran-2-yl)-2,3-dihydroxypropyl]oxy}-carbonyl)amino]methyl}phenyl)sulfonyl]phenyl}methyl)amino]carbonyl}oxy)-2,3-dihydroxypropyl]-4-{[amino(imino)methyl]amino}-3,4-dihydro-2H-pyran-6-carboxylic Acid]						>100 ng/mL	<0.05 ng/mL		
CC(=O)N[C@H]1[C@H]([C@H](OC(=O)Nc2ccc(Cc3ccc(NC(=O)O[C@@H]([C@@H]4OC(C(=O)O)=C[C@H](NC(=N)N)[C@H]4NC(C)=O)[C@H](O)CO)cc3)cc2)[C@H](O)CO)OC(C(=O)O)=C[C@@H]1NC(=N)N [Example 8, (2R,3R,4S)-3-(acetylamino)-2-{(1R,2R)-1-[({[4-({4-[({[(1R,2R)-1-((2R,3R,4S)-3-(acetylamino)-4-{[amino(imino)methyl]amino}-6-carboxy-3,4-dihydro-2H-pyran-2-yl)-2,3-dihydroxypropyl]oxy}carbonyl)amino]phenyl}methyl)phenyl]amino}carbonyl)oxy]-2,3-dihydroxypropyl}-4-{[amino(imino)methyl]amino}-3,4-dihydro-2H-pyran-6-carboxylic Acid bis TFA Salt]	0.003 ng/mL		0.0001 ng/mL			13 ng/mL	<0.05 ng/mL	0.02 ng/mL	EC50 [5]: < 0.0001 ng/mL; Ratio Mean (lung) (cmpd)/PCT AU01/01128 compound 3 ([8]; 0.4 mg/kg, 48 h): 1.05; (lung) ([8]; 0.4 mg/kg, 168 h): 3571 ng/g; Ratio Mean (lung) (cmpd)/PCT AU01/01128 compound 3 ([8]; 0.4 mg/kg, 168 h): 2.28; concentration at 48 h ([8]; 0.4 mg/kg, (lung) ng/g): 3800 ng/g; concentration at 168 h ([8]; 0.4 mg/kg, (lung) ng/g): 3230 ng/g; concentration at 48 h ([8]; 0.4 mg/kg, Mean (lung) ng/g): 3250 ng/g; concentration at 168 h ([8]; 0.4 mg/kg, Mean (lung) ng/g): 3400 ng/g
CC(=O)N[C@H]1[C@H]([C@H](OC(=O)NCc2ccc(-c3ccc(CNC(=O)O[C@@H]([C@@H]4OC(C(=O)O)=C[C@H](NC(=N)N)[C@H]4NC(C)=O)[C@H](O)CO)cc3)cc2)[C@H](O)CO)OC(C(=O)O)=C[C@@H]1NC(=N)N [Example 9, (2R,3R,4S)-3-(acetylamino)-2-{(1R,2R)-1-[({[(4′-{[({[(1R,2R)-1-((2R,3R,4S)-3-(acetylamino)-4-{[amino(imino)methyl]amino}-6-carboxy-3,4-dihydro-2H-pyran-2-yl)-2,3-dihydroxypropyl]oxy}carbonyl)amino]methyl}-1,1′-biphenyl-4-yl)methyl]amino}carbonyl)oxy]-2,3-dihydroxypropyl}-4-{[amino(imino)methyl]amino}-3,4-dihydro-2H-pyran-6-carboxylic Acid bis TFA Salt]		0.23 ng/mL	0.003 ng/mL	0.52	0.45	>100 ng/mL	0.08 ng/mL	0.006 ng/mL	EC50 ([6]; H1N1, reduces plaque numbers by 50%, MDCK cells): > 1 ng/mL; EC50 [7, 13]: 3.7 ng/mL; concentration at 48 h ([8]; 0.1 mg/kg, Mean (cmpd) ng/g): 1400 ng/g; concentration at 168 h ([8]; 0.1 mg/kg, Mean (cmpd) ng/g): 835 ng/g
CCOC(=O)C1=C[C@@H](OC(CC)CC)[C@H](NC(C)=O)[C@@H](N)C1 [Oseltamivir]	0.11 ng/mL (≈ 0.352 nM)	32 ng/mL (≈ 102 nM)	0.23 ng/mL (≈ 0.736 nM)					0.7 ng/mL (≈ 2.24 nM)	EC50 [4, 13]: 0.3 ng/mL (≈ 0.96 nM)
